In patent US7446127B2, “Chroman carboxylic acid derivatives for the treatment of diabetes and lipid disorders” (SK Holdings Co, Ltd., priority 2003, dated 2008):

Legend:
[1] = Solubility in dosing vehicle; format: physicochemical
Description: It appeared that compounds of Examples 1 and 2 were not soluble in 0.5% CMC vehicle.

high fat (HF) rats = experiment: Oral Glucose Tolerance Test (OGTT) in high fat (HF) rats; format: in vivo, Sprague-Dawley rats; conditions: 30 mg/kg/d for 9 days
Procedure: (§1) An Oral Glucose Tolerance Test (OGTT) was performed both in db/db mice and in high fat (HF) rats after dosing 30 mg/kg/d of compounds of Examples 1 and 2 for 9 days. For OGTT and ITT studies, Sprague-Dawley rats were prepared by feeding high fat (HF) diet (60% calorie from fat) for 6 weeks. Before the study, they were matched into groups on the basis of blood glucose levels.

[2] = system: differentiated 3T3-L1 adipocytes; experiment: Glucose transport assay (2-deoxy-D-glucose uptake); format: cell-based; conditions: 48 hr
Procedure: 3T3-L1 fibroblasts (American Type Culture Collection) were plated and grown for 2 days postconfluence in Dulbecco's modified Eagle's medium (DMEM; 4,500 mg/L glucose, HyClone) supplemented 10% FBS, 10 μg/mL penicillin and streptomycin in an atmosphere of 5% CO2 at 37° C. Adipocyte differentiation was then induced using standard protocol. After 48 hr, the differentiation medium was replaced with maintenance medium containing DMEM supplemented with 10% FBS. The maintenance medium was changed every 3 days until the cells were utilized for experimentation. Glucose transport activity was measured in the presence or absence of insulin and the protocol was modified from Kletzien, R F et al. (1992) Molecular Pharmacology 41:393-398. Briefly, differentiated 3T3-L1 adipocytes were incubated with vehicle (DMSO), insulin (100 nM) alone, test compound (50 μM) alone and a combination of insulin (100 nM)+test compound (50 μM) for 48 hr. Medium was changed twice a day in the presence of compound. Glucose uptake was measured using 2-Deoxy-D-[1−^3H] glucose as label after 90 min incubation with each compound. […] In the series of compounds, one of the best result was obtained with 7-[2-(5-methyl-2-phenyl-4-oxazolyl)-ethoxy]-chroman-3-carboxylic acid (Example 1).

[3] = system: differentiated 3T3-L1 adipocytes; experiment: Glucose transport assay (2-deoxy-D-glucose uptake); format: cell-based
STZ rat = experiment: Blood glucose lowering effect in STZ rat; format: in vivo; conditions: STZ rat (data not shown)
db/db mice [4] = experiment: Oral Glucose Tolerance Test (OGTT) in db/db mice; format: in vivo; conditions: 30 mg/kg/d for 9 days
Procedure: (§2) Mice used in this study were standard model of type II diabetes developed by Jackson Laboratories (Bar Harbor, Me.). Male, 8-week-old db/db mice were housed six per cage in hanging wire bottom cages with standard laboratory conditions. The mice had free access to normal chow (Purina Rodent Chow) and water. At the age of 11-12 weeks, mice were bled in the tail for glucose matching among the groups (n=6 per group). The grouped mice were then dosed orally with vehicle (CMC) or with compounds of formula I (30 mg/kg/d) for 7 days. Compound of formula I at 30 mg/kg/d was dosed as suspension in 0.5% CMC+0.2% Tween 80 in H2O. Fresh suspension was prepared for 8 days dosing and kept in a refrigerator. The suspension was administered by oral gavage daily in the morning. The control group received vehicle (dose 10 mL/kg). Blood glucose concentrations were monitored at basal and 3 hr post dose on day 4 and 8. For blood sampling, mice were placed in a restrainer and drop of blood was obtained by nick in the tip of the tail. Blood glucose concentrations were determined either by putting a drop of blood on a glucose strip for analysis by a glucometer or using a 10 μL plasma sample in a YSI (Yellow Spring Instruments, OH) analyzer. Results are expressed as absolute blood glucose concentrations (mg/dL) and % reduction that is achieved reduction relative to vehicle treated control group. Animals having more than 300 mg/dL of blood glucose were used for testing. Statistical significance (p<0.05) is given versus the appropriate sample in vehicle treated animals. On day 7, the mice were fasted overnight for 18 hrs and were bled in the tail for the glucose level checking then dosed with the testing compounds (30 mg/kg/d). After 2 hr, blood samples were taken and the rats were dosed with 10% glucose in water (10 ml/kg) orally and blood glucose was monitored at 15, 30, 60, 90 and 120 min after dosing. The blood samples were centrifuged and plasma samples were collected and analyzed for insulin, Tg and FFA. An Oral Glucose Tolerance Test (OGTT) was performed both in db/db mice and in high fat (HF) rats after dosing 30 mg/kg/d of compounds of Examples 1 and 2 for 9 days. For OGTT and ITT studies, Sprague-Dawley rats were prepared by feeding high fat (HF) diet (60% calorie from fat) for 6 weeks. Before the study, they were matched into groups on the basis of blood glucose levels.

HF rat = experiment: Insulin tolerance test (ITT) in HF rat; format: in vivo, Sprague-Dawley rats; conditions: 30 mg/kg oral, insulin 0.25 U/kg i.p. 2 hr later
Procedure: as §1, with “levels. Insulin tolerance test (ITT) was performed in HF rat which were prepared in the same manner with OGTT test animal. On the day of the study, rats were orally dosed with the testing compounds (30 mg/kg) and 2 hr later, rats were dosed with insulin (0.25 U/kg, i.p.) in 0.1% BSA solution in saline. Blood glucose of the rat was measured at 15, 30, 60, 120 min after dose.” for “levels.”

db/db mice [5] = experiment: Efficacy test for blood glucose lowering (db/db mice); format: in vivo; conditions: 30 mg/kg/d oral
Procedure: as §2, with “FFA.” for “FFA. An Oral Glucose Tolerance Test (OGTT) was performed both in db/db mice and in high fat (HF) rats after dosing 30 mg/kg/d of compounds of Examples 1 and 2 for 9 days. For OGTT and ITT studies, Sprague-Dawley rats were prepared by feeding high fat (HF) diet (60% calorie from fat) for 6 weeks. Before the study, they were matched into groups on the basis of blood glucose levels.”

Cc1oc(-c2ccccc2)nc1CCOc1ccc2c(c1)OCC(C(=O)O)C2 (centres unmarked) [Example 1, 7-[2-(5-Methyl-2-phenyl-4-oxazolyl)ethoxy]chromane-3-carboxylic acid]
solubility in 0.5% CMC vehicle [1]: not soluble
AUC of Glucose in high fat rat, % reduction (high fat (HF) rats): 13.1%
AUC of Glucose in high fat rat, Observed value (high fat (HF) rats; control 14053): 12206 mg/dl × 120 min
Fold Stimulation (50 μM) of 2-deoxy-D-glucose uptake, Insulin + Compound ([2]; 50 μM compound + 100 nM insulin): 8.4 fold
fold induction at 50 µM ([2]; Mus musculus, 50 μM compound alone, read-out: Fold Stimulation (50 μM) of 2-deoxy-D-glucose uptake, Compound only): 1.3
glucose uptake, dose dependence on compound ([3]; 0-100 μM compound in the presence of 100 nM insulin (FIG. 2)): dose-dependent manner
glucose uptake of insulin in presence of compound ([3]; 50 μM compound, 0.1-1,000 nM insulin (FIG. 3)): further enhanced glucose uptake of insulin in dose dependent manner
stimulation of basal glucose uptake by compound per se ([3]; 3T3-L1 adipocytes, no insulin, 0.1 to 100 μM): did not stimulate the basal glucose uptake
blood glucose lowering effect (STZ rat): did not reduce blood glucose
AUC of Glucose in db/db, % reduction (db/db mice [4]): 41.5%
AUC of Glucose in db/db, Observed value (db/db mice [4]; control 40858): 28870 mg/dl × 120 min
AUC of Glucose in high fat rat, % reduction (HF rat): 27.7 (p < 0.02) %
AUC of Glucose in high fat rat, Observed value (HF rat; control 13359): 11014 mg/dl × 120 min
Fatty acid % reduction (db/db mice [5]; plasma): −33.7%
Insulin % reduction (db/db mice [5]; plasma): −62.4%
Glucose Max % efficacy (db/db mice [5]; suspension in 0.5% CMC + 0.2% Tween 80): 80.0%
Glucose Observed value (db/db mice [5]; suspension in 0.5% CMC + 0.2% Tween 80, control 261.2): 132.2 mg/dL
